Measurements from patent publication US7880007B2, “Bicyclic substituted phenyl piperidine modulators of muscarinic receptors” (Vertex Pharmaceuticals Incorporated, priority 2004, dated 2011).

Columns and labels:
Format in all cases: cell-based
[1] = target: T1, M4 muscarinic receptor (Homo sapiens, UniProt P08173); assay: Functional mobilization of intracellular calcium (FLIPR), M4-CHO cells; conditions: for M4 Activity: M4-CHO cells, calcium mobilization (FLIPR)
T1 construct: expressed in transfected cells; host or cells: CHO (M4-CHO)
T1 sequence (P08173 1-479): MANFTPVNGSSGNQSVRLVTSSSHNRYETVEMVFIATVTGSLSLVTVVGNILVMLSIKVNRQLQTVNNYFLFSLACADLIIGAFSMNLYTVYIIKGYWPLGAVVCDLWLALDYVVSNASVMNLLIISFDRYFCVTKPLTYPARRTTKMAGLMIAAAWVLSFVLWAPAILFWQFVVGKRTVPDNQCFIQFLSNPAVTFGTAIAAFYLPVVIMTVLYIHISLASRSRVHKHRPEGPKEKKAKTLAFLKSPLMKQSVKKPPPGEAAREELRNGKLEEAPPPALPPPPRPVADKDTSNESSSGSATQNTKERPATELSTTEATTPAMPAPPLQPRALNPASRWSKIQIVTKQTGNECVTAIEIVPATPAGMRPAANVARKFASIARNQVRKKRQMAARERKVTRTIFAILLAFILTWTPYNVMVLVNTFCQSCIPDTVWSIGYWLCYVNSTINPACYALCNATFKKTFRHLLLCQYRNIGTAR
How it was run: (§1)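 Calcium mobilisation read by FLIPR over 60 s (ex 488/em 540 nm) in recombinant muscarinic CHO lines loaded with calcium dye plus 1 mM probenecid. Compounds tested as agonists alone, or as inhibitors against EC80 carbachol after 15 min pre-incubation or co-addition; 0.5% DMSO; efficacy scaled to carbachol maximal response.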

[2] = target: T2, M2 muscarinic receptor (Homo sapiens, UniProt P08172); assay: Functional mobilization of intracellular calcium (FLIPR), M2-CHO cells; conditions: for M2 Activity: M2-CHO cells, calcium mobilization (FLIPR)
T2 construct: expressed in transfected cells; host or cells: CHO (M2-CHO)
T2 sequence (P08172 1-466): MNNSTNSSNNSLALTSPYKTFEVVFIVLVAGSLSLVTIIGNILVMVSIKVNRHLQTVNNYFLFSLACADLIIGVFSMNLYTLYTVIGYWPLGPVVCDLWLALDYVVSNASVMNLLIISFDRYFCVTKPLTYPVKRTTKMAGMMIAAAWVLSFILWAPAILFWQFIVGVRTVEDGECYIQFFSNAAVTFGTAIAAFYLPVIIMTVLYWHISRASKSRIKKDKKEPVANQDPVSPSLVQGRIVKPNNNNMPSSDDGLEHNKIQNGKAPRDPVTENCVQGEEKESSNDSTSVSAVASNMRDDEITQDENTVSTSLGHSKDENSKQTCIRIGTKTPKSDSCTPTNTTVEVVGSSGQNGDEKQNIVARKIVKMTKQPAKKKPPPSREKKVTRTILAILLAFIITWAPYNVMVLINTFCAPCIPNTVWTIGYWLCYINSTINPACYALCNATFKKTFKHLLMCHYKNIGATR
How it was run: as §1

[3] = target: T3, M1 muscarinic receptor (Homo sapiens, UniProt P11229); assay: Functional mobilization of intracellular calcium (FLIPR), M1-CHO cells; conditions: for M1 Activity: M1-CHO cells, calcium mobilization (FLIPR)
T3 construct: expressed in transfected cells; host or cells: CHO (M1-CHO)
T3 sequence (P11229 1-460): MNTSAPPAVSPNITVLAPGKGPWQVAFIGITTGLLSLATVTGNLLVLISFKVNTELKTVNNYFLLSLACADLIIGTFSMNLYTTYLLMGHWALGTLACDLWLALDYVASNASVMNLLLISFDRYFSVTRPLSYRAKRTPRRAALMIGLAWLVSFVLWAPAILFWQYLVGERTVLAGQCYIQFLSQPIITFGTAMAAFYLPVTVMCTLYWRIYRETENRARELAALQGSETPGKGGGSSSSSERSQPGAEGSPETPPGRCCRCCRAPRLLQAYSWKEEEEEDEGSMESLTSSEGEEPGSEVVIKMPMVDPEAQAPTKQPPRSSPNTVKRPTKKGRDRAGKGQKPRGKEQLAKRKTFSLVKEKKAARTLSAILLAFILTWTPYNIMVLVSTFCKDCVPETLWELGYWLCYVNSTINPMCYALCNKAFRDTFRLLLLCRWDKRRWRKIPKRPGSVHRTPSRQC
How it was run: as §1

[4] = target: T4, M3 muscarinic receptor (Homo sapiens, UniProt P20309); assay: Functional mobilization of intracellular calcium (FLIPR), M3-CHO cells; conditions: for M3 Activity: M3-CHO cells, calcium mobilization (FLIPR)
T4 construct: expressed in transfected cells; host or cells: CHO (M3-CHO)
T4 sequence (P20309 whole entry): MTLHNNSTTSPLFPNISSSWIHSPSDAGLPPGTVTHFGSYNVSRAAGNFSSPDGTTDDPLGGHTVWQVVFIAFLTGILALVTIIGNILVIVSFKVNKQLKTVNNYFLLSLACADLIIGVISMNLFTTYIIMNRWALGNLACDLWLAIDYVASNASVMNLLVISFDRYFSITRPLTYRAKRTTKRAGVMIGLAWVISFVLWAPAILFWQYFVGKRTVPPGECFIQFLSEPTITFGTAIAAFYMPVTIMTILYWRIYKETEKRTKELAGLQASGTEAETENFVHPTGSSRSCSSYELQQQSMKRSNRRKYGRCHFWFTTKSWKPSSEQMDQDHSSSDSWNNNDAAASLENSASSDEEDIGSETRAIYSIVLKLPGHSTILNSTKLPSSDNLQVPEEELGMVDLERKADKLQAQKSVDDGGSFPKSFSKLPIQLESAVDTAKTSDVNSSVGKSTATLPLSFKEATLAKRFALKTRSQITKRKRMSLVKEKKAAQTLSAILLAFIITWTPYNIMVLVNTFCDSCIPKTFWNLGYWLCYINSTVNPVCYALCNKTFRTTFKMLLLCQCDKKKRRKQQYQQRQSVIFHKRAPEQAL
How it was run: as §1

[5] = 100% efficacy = maximum response obtained with the Carbachol control

SMILES	Emax [1, 5] [%]	M4 Activity [1]	Emax [2, 5] [%]	M2 Activity [2]	Emax [3, 5] [%]	M1 Activity [3]	Emax [4, 5] [%]	M3 Activity [4]	M4 Efficacy [1, 5]	M2 Efficacy [2, 5]	M1 Efficacy [3, 5]	M3 Efficacy [4, 5]
CCOC(=O)C(C)(C)Oc1ccccc1C1CCN([C@H]2C[C@H]3CC[C@H]2C3)CC1 [Compound 42]	< 25	++ (activity was measured to be from 1.0 μM to 5.0 μM)	< 25	+ (activity was measured to be greater than 5.0 μM)	< 25	+ (activity was measured to be greater than 5.0 μM)	< 25	+ (activity was measured to be greater than 5.0 μM)	–	–	–	–
CCOC(=O)N1CCC(N2CCC(c3cc(-c4ccc(S(C)(=O)=O)cc4)ccc3OC)CC2)CC1 [Compound 43]	25 to 100	+++ (activity was measured to be less than 1.0 μM)	25 to 100	+++ (activity was measured to be less than 1.0 μM)	> 100	+++ (activity was measured to be less than 1.0 μM)	25 to 100	+ (activity was measured to be greater than 5.0 μM)	–	–	–	–
COc1ccc(Cl)cc1C1(F)CCN(C[C@@H]2C[C@H]3C=C[C@H]2C3)CC1 [Compound 44]	25 to 100	++ (activity was measured to be from 1.0 μM to 5.0 μM)	25 to 100	+ (activity was measured to be greater than 5.0 μM)	25 to 100	+ (activity was measured to be greater than 5.0 μM)	< 25	+ (activity was measured to be greater than 5.0 μM)	–	–	–	–
Cc1ccc(-c2ccccc2C2CCN([C@H]3C[C@H]4CC[C@H]3C4)CC2)cc1 [Compound 45]	25 to 100	+ (activity was measured to be greater than 5.0 μM)	< 25	+ (activity was measured to be greater than 5.0 μM)	< 25	+ (activity was measured to be greater than 5.0 μM)	< 25	+ (activity was measured to be greater than 5.0 μM)	–	–	–	–
Cc1ccccc1C1CCN(CC2CC3C=CC2C3)CC1 (centres unmarked) [Compound 46]	25 to 100	+++ (activity was measured to be less than 1.0 μM)	25 to 100	+ (activity was measured to be greater than 5.0 μM)	25 to 100	++ (activity was measured to be from 1.0 μM to 5.0 μM)	–	+ (activity was measured to be greater than 5.0 μM)	–	–	–	–
CCCOc1ccccc1C1CCN([C@H]2C[C@H]3CC[C@H]2C3)CC1 [Compound 47]	25 to 100	++ (activity was measured to be from 1.0 μM to 5.0 μM)	< 25	+ (activity was measured to be greater than 5.0 μM)	25 to 100	+ (activity was measured to be greater than 5.0 μM)	< 25	+ (activity was measured to be greater than 5.0 μM)	–	–	–	–
COc1ccc(-c2ccc(F)cc2F)cc1C1CCN([C@H]2C[C@H]3CC[C@H]2C3)CC1 [Compound 48]	25 to 100	+ (activity was measured to be greater than 5.0 μM)	< 25	+ (activity was measured to be greater than 5.0 μM)	25 to 100	+ (activity was measured to be greater than 5.0 μM)	< 25	+ (activity was measured to be greater than 5.0 μM)	–	–	–	–
COc1cc(F)c(F)c(C2CCN(C3CCOCC3)CC2)c1 [Compound 49]	25 to 100	+++ (activity was measured to be less than 1.0 μM)	< 25	+ (activity was measured to be greater than 5.0 μM)	25 to 100	+ (activity was measured to be greater than 5.0 μM)	< 25	+ (activity was measured to be greater than 5.0 μM)	–	–	–	–
COc1ccc(C(=O)c2ccccc2)cc1C1CCN([C@H]2C[C@H]3CC[C@H]2C3)CC1 [Compound 50]	25 to 100	++ (activity was measured to be from 1.0 μM to 5.0 μM)	< 25	+ (activity was measured to be greater than 5.0 μM)	25 to 100	+ (activity was measured to be greater than 5.0 μM)	< 25	+ (activity was measured to be greater than 5.0 μM)	–	–	–	–
COc1ccc(C)cc1C1CCN(C2C[C@H]3CC[C@H]2C3)CC1 (some centres unmarked) [Compound 51]	25 to 100	+++ (activity was measured to be less than 1.0 μM)	25 to 100	+ (activity was measured to be greater than 5.0 μM)	25 to 100	++ (activity was measured to be from 1.0 μM to 5.0 μM)	< 25	+ (activity was measured to be greater than 5.0 μM)	–	–	–	–
COc1ccc(-c2ccc3c(c2)OCO3)cc1C1CCN(C2CCOCC2)CC1 [Compound 52]	25 to 100	+ (activity was measured to be greater than 5.0 μM)	< 25	+ (activity was measured to be greater than 5.0 μM)	< 25	+ (activity was measured to be greater than 5.0 μM)	< 25	+ (activity was measured to be greater than 5.0 μM)	–	–	–	–
COc1ccc(Cl)cc1C1CCN(C2CCC(=NOC3CCCCO3)CC2)CC1 (centres unmarked) [Compound 54]	–	+++ (activity was measured to be less than 1.0 μM)	–	+ (activity was measured to be greater than 5.0 μM)	–	++ (activity was measured to be from 1.0 μM to 5.0 μM)	–	+ (activity was measured to be greater than 5.0 μM)	++ (efficacy was calculated to be from 100% to 25%)	+ (efficacy was calculated to be less than 25%)	++ (efficacy was calculated to be from 100% to 25%)	+ (efficacy was calculated to be less than 25%)
